According to patent US20260250318A1, “COMPOSITIONS AND METHODS FOR CROSSING THE BLOOD BRAIN BARRIER” (VOYAGER THERAPEUTICS, INC., priority 2022, published 2026):

System: brains, heart, liver, muscle, and DRG of the NHPs
Assay: Maturation of TTM-001 and TTM-002 capsids, NGS enrichment in NHP tissues
Assay type: in vivo
Conditions: NGS fold-enrichment; DRG; NHP; relative to AAV9
Method in brief: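 Variants carry mutations within and flanking the loop IV peptide insert: positions 450–466 were triplet-randomized, while positions 449–466 received low-frequency point mutations. The combined pool went into two NHPs, and each peptide was scored by NGS enrichment ratio against AAV9.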

| Sequence | Fold Enrichment relative to AAV9, DRG (NHP) [fold] |
| --- | --- |
| KTINGSGSPHSKAKGWQT | 0.000 |

Same assay, conditions: NGS fold-enrichment; brain; NHP; relative to AAV9

| Sequence | Fold Enrichment relative to AAV9, Brain (NHP) [fold] |
| --- | --- |
| KTINGSGSPHSKAKGWQT | 0.000 |

Same assay, conditions: NGS fold-enrichment; heart; NHP; relative to AAV9

| Sequence | Fold Enrichment relative to AAV9, Heart (NHP) [fold] |
| --- | --- |
| KTINGSGSPHSKAKGWQT | 0.000 |

Same assay, conditions: NGS fold-enrichment; liver DNA; NHP; relative to AAV9

| Sequence | Fold Enrichment relative to AAV9, Liver DNA (NHP) [fold] |
| --- | --- |
| KTINGSGSPHSKAKGWQT | 1.827 |

Same assay, conditions: NGS fold-enrichment; liver RNA; NHP; relative to AAV9

| Sequence | Fold Enrichment relative to AAV9, Liver RNA (NHP) [fold] |
| --- | --- |
| KTINGSGSPHSKAKGWQT | 10.450 |

Same assay, conditions: NGS fold-enrichment; muscle; NHP; relative to AAV9

| Sequence | Fold Enrichment relative to AAV9, Muscle (NHP) [fold] |
| --- | --- |
| KTINGSGSPHSKAKGWQT | 0.000 |

Same assay, conditions: NHP DRG; NGS; relative to AAV9 control

| Sequence | Fold Enrichment relative to AAV9, DRG (NHP) [fold] |
| --- | --- |
| KTINYTRSPHSKAQNQQT | 0.000 |
| KTINGSGSPHVNCQNQQT | 0.000 |
| KTINGSGSPHSKAQCLKT | 0.000 |
| KTINGSGSPHLCVQNQQT | 0.000 |
| KTINGSGSPHSKRSYQQT | 0.000 |
| KTINGSGSPHSKVRMQQT | 0.000 |
| KTINGPWSPHRKAQNQQT | 0.000 |
| KTINGSGSPHSKAQSAKT | 0.000 |
| KTINGSGSPHYGIQNQQT | 0.000 |
| KTINGSGSPHSKAQKCIT | 0.000 |
| KTINGSGSPHSKWGLQQT | 0.000 |

Same assay, conditions: NHP brain; NGS; relative to AAV9 control

| Sequence | Fold Enrichment relative to AAV9, Brain (NHP) [fold] |
| --- | --- |
| KTINYTRSPHSKAQNQQT | 0.000 |
| KTINGSGSPHVNCQNQQT | 0.000 |
| KTINGSGSPHSKAQCLKT | 0.000 |
| KTINGSGSPHLCVQNQQT | 0.000 |
| KTINGSGSPHSKRSYQQT | 0.000 |
| KTINGSGSPHSKVRMQQT | 0.000 |
| KTINGPWSPHRKAQNQQT | 0.000 |
| KTINGSGSPHSKAQSAKT | 0.000 |
| KTINGSGSPHYGIQNQQT | 0.000 |
| KTINGSGSPHSKAQKCIT | 0.000 |
| KTINGSGSPHSKWGLQQT | 0.000 |

Same assay, conditions: NHP heart; NGS; relative to AAV9 control

| Sequence | Fold Enrichment relative to AAV9, Heart (NHP) [fold] |
| --- | --- |
| KTINYTRSPHSKAQNQQT | 0.000 |
| KTINGSGSPHVNCQNQQT | 0.000 |
| KTINGSGSPHSKAQCLKT | 0.000 |
| KTINGSGSPHLCVQNQQT | 0.000 |
| KTINGSGSPHSKRSYQQT | 0.000 |
| KTINGSGSPHSKVRMQQT | 0.000 |
| KTINGPWSPHRKAQNQQT | 0.000 |
| KTINGSGSPHSKAQSAKT | 0.000 |
| KTINGSGSPHYGIQNQQT | 0.000 |
| KTINGSGSPHSKAQKCIT | 0.000 |
| KTINGSGSPHSKWGLQQT | 0.000 |

Same assay, conditions: NHP liver DNA; NGS; relative to AAV9 control

| Sequence | Fold Enrichment relative to AAV9, Liver DNA (NHP) [fold] |
| --- | --- |
| KTINYTRSPHSKAQNQQT | 0.431 |
| KTINGSGSPHVNCQNQQT | 6.122 |
| KTINGSGSPHSKAQCLKT | 1.453 |
| KTINGSGSPHLCVQNQQT | 1.428 |
| KTINGSGSPHSKRSYQQT | 2.116 |
| KTINGSGSPHSKVRMQQT | 1.835 |
| KTINGPWSPHRKAQNQQT | 0.434 |
| KTINGSGSPHSKAQSAKT | 4.200 |
| KTINGSGSPHYGIQNQQT | 1.076 |
| KTINGSGSPHSKAQKCIT | 1.887 |
| KTINGSGSPHSKWGLQQT | 2.639 |

Same assay, conditions: NHP liver RNA; NGS; TTM-001 and TTM-002 matured AAV capsid variants; relative to AAV9 control

| Sequence | Fold Enrichment relative to AAV9, Liver RNA (NHP) [fold] |
| --- | --- |
| KTINYTRSPHSKAQNQQT | 11.514 |
| KTINGSGSPHVNCQNQQT | 30.010 |
| KTINGSGSPHSKAQCLKT | 49.565 |
| KTINGSGSPHLCVQNQQT | 19.030 |
| KTINGSGSPHSKRSYQQT | 28.973 |
| KTINGSGSPHSKVRMQQT | 11.572 |
| KTINGPWSPHRKAQNQQT | 12.103 |
| KTINGSGSPHSKAQSAKT | 11.162 |
| KTINGSGSPHYGIQNQQT | 30.908 |
| KTINGSGSPHSKAQKCIT | 69.547 |
| KTINGSGSPHSKWGLQQT | 17.543 |

Same assay, conditions: NHP muscle; NGS; relative to AAV9 control

| Sequence | Fold Enrichment relative to AAV9, Muscle (NHP) [fold] |
| --- | --- |
| KTINYTRSPHSKAQNQQT | 0.000 |
| KTINGSGSPHVNCQNQQT | 0.000 |
| KTINGSGSPHSKAQCLKT | 0.000 |
| KTINGSGSPHLCVQNQQT | 0.000 |
| KTINGSGSPHSKRSYQQT | 0.000 |
| KTINGSGSPHSKVRMQQT | 0.000 |
| KTINGPWSPHRKAQNQQT | 0.000 |
| KTINGSGSPHSKAQSAKT | 0.000 |
| KTINGSGSPHYGIQNQQT | 0.000 |
| KTINGSGSPHSKAQKCIT | 0.000 |
| KTINGSGSPHSKWGLQQT | 0.000 |

System: brain
Assay: Maturation of TTM-001 capsid, NGS enrichment in brain of CD-1 Outbred mice
Assay type: in vivo
Conditions: NGS fold-enrichment of TTM-001 matured AAV capsid variants in the brain of CD-1 Outbred mice; intravenous 1.0×10^12 VG/dose; 14 days in life; RNA; relative to non-matured TTM-001 control
From the text: This Example describes maturation of the TTM-001 (SEQ ID NO: 981 (amino acid) and 983 (DNA), comprising SEQ ID NO: 941) and TTM-002 (SEQ ID NO: 982 (amino acid) and 984 (DNA), comprising SEQ ID NO: 2) capsid variants to further enhance their transduction and biodistribution in the central nervous system and evolve the AAV capsid variants to provide further cross-species compatibility. Two approaches were used to mature the TTM-001 and TTM-002 capsid sequences in order to randomize and mutate within and around the peptide insert comprised within loop IV of the capsid variant. […] In the first maturation approach, sets of three contiguous amino acids were randomized across the mutagenesis region in the TTM-001 and TTM-002 sequences, which spanned from position 450 to position 466, numbered according to SEQ ID NO: 981 and 982. In the second maturation approach, mutagenic primers were used to introduce point mutations at a low frequency, scattered across the mutagenesis region in the TTM-001 and TTM-002 sequences ranging from position 449 to position 466, numbered according to SEQ ID NO: 981 and 982. AAV capsid variants arising from each maturation approach for TTM-001 were pooled together and AAV capsid variants arising from each maturation approach for TTM-002 were also pooled together, for subsequent testing and characterization in mice.
The library of pooled matured AAV capsid variants generated from TTM-001 or library of pooled matured AAV capsid variants generated from the TTM-002 matured AAV capsid variant each were intravenously injected into the tail vein of three female CD-1 Outbred mice (Charles River) at a dose of 1.0×10^12 VG/dose. After 14-days in life, the brains of the mice were isolated and RNA was extracted. Following RNA recovery and RT-PCR amplification, a systematic NGS enrichment analysis was performed to calculate the fold enrichment ratio relative to the corresponding TTM-001 or TTM-002 control, and the peptides comprised within the variants were identified. The data for the TTM-001 matured capsid variants is provided in Table 13 and the data for the TTM-002 matured capsid variants is provided in Table 14.

| Sequence | Fold enrichment over TTM-001 [fold] |
| --- | --- |
| KTINGPLSPHCKAQNQQT | 2.194 |
| KTINGSGSPHSKARLWQT | 2.914 |
| KTINGSLSPHLCAQNQQT | 2.775 |
| KTINGSGSPHSKAFRPQT | 2.499 |
| KTINGSGSPHSKQRVQQT | 2.117 |
| KTINGSGSPHSKKVSQQT | 2.088 |
| KTINGLFSPHRKAQNQQT | 2.331 |
| KTINGSGSPHSLWLNQQT | 4.412 |
| KELVGSGSPHSKAQNQQT | 2.019 |
| KTINGSGSPHSKARGQQT | 2.039 |
| KTRSRSGSPHSKAQNQQT | 3.669 |
| KTINGSGSPHSKAQLKLT | 2.125 |
| KTINGSGSPHSTWLNQQT | 3.583 |
| KTINGMCSPHSKAQNQQT | 2.006 |
| KTINGSGSPHSKARSRQT | 2.972 |
| KTINGSGSPHSKPRSQQT | 2.235 |
| KTINGSGSPHSKAKHLQT | 2.870 |
| KTINGSGSPHVRRQNQQT | 4.114 |

| Sequence | Fold enrichment over TTM-001 [fold] |
| --- | --- |
| KTINGNVSPHRKAQNQQT | 2.043 |
| KTINGRPSPHSKAQNQQT | 2.276 |
| KTINGSVSPHLYAQNQQT (peptide inserted in AAV capsid) | 2.028 |
| KTINGSKSPHRLAQNQQT | 3.073 |
| KTINGSGSPHVTWQNQQT | 2.281 |
| KTINGSGSPHSYRPNQQT | 3.095 |
| KTINGSGSPHSKAQAFRT | 2.022 |
| KTINGSGSPHSVSWNQQT | 2.223 |
| KTINGSGSPHTKWQNQQT | 2.222 |
| KTINGSGSPHSKGRAQQT | 2.607 |
| KTINGSGSPHLYGQNQQT | 2.277 |
| KTINGSGSPHSCLLNQQT | 3.127 |
| KTINGSGSPHRRMQNQQT | 2.004 |
| KTINGILSPHRKAQNQQT | 2.475 |
| KTINGSGSPHWLAQNQQT | 3.192 |
| KTINGSGSPHSKARLYQT | 2.201 |
| KTINGSGSPHSKAQNVKL | 2.024 |
| KTINGSSSPHSWAQNQQT (peptide inserted in AAV capsid) | 2.119 |
